# Data published in ChEMBL document CHEMBL1201862, “PubChem BioAssay data set” (2004).
# Active and inactive are the calls of the source.
# Experiments:
# [1] = system: T-cell; assay: inhibitors of CD8+ T cell–vesicle binding, dose response, mouse 2C CD8+ T cells, flow cytometry (AID 485284); type: functional
# [2] = target: Photoreceptor-specific nuclear receptor (Homo sapiens, UniProt Q9Y5X4); type: functional, cell-based;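 note: CHO-S cells with Gal4-NCOR and VP16-NR2E3 two-hybrid luciferase reporter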
# [3] = target: Protein Wnt-3a (Mus musculus, UniProt P27467); assay: Wnt3a-driven reporter signaling inhibition, dose response, selectivity assay for Gli-SUFU antagonist project, Wnt-LIGHT cells, luminescence (AID 651570); type: functional; settings: read-out: IC50_Mean;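 note: Wnt-LIGHT reporter cells stimulated with conditioned medium from Wnt3a-producing cells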
# [4] = target: Hepatocyte nuclear factor 4-alpha (Homo sapiens, UniProt P41235); type: functional, cell-based;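 note: biochemical luminescence-based dose-response counterscreen measuring inhibition of HNF4 dimerization, run alongside a screen for blockers of ABHD5–perilipin-5 interaction; split luciferase complementation of HNF4 fusion proteins in cell lysate measuring dimerization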
# [5] = target: T1, Heat shock factor protein 1 (Mus musculus, UniProt P38532); assay: HSF1 potentiators in luciferase reporter cells, confirmation, cell-based, NIH3T3, luminescence, dose retest (AID 435004); type: functional;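 note: stress induced by proteasome inhibitor MG132 added 30 min after compound; luciferase reporter driven by HSF1 response element in NIH3T3 cells; actives raise luminescence as potentiators of the MG132 stress response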
# T1 sequence (P38532 whole entry): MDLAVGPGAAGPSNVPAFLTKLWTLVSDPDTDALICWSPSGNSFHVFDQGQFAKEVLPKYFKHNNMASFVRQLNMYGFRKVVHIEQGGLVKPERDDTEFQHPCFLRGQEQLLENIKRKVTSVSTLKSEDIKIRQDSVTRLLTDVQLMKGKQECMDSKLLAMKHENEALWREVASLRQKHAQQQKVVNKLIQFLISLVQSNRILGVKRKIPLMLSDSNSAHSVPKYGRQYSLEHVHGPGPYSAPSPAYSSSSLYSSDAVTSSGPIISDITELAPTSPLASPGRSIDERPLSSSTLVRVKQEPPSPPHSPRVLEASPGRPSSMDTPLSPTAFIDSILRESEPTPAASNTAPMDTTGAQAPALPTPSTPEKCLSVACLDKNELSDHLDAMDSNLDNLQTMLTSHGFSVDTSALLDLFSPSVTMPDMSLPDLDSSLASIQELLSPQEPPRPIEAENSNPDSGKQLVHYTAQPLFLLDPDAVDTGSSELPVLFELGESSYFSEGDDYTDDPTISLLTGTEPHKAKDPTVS
# [6] = target: T2, Corticotropin-releasing factor receptor 2/Corticotropin-releasing factor-binding protein (Homo sapiens, UniProt P24387+Q13324); assay: Dose Response confirmation of uHTS hits for small molecule antagonists of the CRF-binding protein and CRF-R2 receptor complex.; type: functional; settings: read-out: IC50_Mean
# T2 sequence (Q13324 whole entry): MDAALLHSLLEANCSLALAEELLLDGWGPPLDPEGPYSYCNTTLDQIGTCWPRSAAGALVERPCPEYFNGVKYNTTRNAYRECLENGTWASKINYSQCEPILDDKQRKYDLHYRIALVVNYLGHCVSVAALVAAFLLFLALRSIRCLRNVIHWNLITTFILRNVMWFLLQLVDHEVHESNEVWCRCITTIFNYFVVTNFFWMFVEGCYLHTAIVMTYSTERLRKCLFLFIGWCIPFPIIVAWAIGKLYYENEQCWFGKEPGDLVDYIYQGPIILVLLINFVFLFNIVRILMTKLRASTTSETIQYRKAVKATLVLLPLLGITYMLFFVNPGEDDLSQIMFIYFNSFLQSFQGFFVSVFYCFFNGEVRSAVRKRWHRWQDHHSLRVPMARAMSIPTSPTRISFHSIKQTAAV
# T2 sequence (P24387 whole entry): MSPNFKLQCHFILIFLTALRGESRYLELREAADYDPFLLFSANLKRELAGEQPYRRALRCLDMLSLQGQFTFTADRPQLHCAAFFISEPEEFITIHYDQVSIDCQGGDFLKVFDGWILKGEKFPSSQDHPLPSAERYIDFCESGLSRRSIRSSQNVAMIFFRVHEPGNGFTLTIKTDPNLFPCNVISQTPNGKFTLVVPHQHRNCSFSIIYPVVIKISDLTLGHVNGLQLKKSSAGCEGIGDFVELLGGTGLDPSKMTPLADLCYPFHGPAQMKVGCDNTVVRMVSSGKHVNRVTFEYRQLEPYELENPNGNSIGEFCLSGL
# [7] = target: T2, Corticotropin-releasing factor receptor 2/Corticotropin-releasing factor-binding protein; assay: activators of CRF receptor 2 with binding protein – uHTS hits, confirmation (AID 602473); type: functional; settings: read-out: EC50_Mean
# [8] = CRF-BP/CRF-R2 complex antagonists, dose response, cell-based, uHTS hits, 384-well (AID 651639); type: functional, Homo sapiens; settings: read-out: IC50_Mean
# [9] = target: Cytochrome P450 2D6 (Homo sapiens, UniProt P10635);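 note: CYP2D6 member of a cytochrome P450 panel assay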
# [10] = cells; type: functional, cell-based
# [11] = cells; type: functional, cell-based; remark: listed apart in the source
# [12] = target: T3, Short transient receptor potential channel 4 (Mus musculus, UniProt Q9QUQ5); assay: mouse TRPC4 channel activators, dose response, cell-based, HEK293 TRPC4/mu-opioid, Fluo-4 calcium (AID 434937); type: functional
# T3 sequence (Q9QUQ5 whole entry): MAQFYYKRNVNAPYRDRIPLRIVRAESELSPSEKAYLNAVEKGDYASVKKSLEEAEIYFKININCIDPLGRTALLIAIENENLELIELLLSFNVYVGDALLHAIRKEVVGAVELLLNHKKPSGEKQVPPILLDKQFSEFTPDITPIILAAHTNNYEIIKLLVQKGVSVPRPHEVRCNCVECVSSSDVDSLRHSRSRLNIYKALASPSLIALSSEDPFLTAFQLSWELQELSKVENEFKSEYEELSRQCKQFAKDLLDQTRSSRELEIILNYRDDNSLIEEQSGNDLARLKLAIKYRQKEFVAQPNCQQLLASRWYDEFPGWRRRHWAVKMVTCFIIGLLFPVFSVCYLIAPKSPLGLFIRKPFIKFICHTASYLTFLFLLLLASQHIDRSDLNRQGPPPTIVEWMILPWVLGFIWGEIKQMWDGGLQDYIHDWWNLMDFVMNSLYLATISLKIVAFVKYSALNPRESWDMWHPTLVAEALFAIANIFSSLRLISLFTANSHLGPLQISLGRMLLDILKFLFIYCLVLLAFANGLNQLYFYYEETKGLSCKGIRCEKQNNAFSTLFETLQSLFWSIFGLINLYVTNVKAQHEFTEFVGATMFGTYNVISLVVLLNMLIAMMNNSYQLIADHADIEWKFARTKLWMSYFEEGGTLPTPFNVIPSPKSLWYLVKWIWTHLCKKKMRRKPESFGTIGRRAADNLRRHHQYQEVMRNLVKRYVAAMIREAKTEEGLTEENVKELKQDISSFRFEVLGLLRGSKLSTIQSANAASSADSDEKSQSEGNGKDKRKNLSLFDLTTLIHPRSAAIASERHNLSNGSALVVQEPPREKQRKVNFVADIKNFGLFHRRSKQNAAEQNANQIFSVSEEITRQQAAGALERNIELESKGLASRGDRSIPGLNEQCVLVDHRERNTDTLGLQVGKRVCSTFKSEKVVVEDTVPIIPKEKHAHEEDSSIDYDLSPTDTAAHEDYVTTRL
# [13] = system: INS1; assay: beta cell apoptosis inhibitors, cytokine rescue, dose response, luminescence, retest (AID 449756); type: functional, cell-based; settings: Rattus norvegicus, INS1;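 note: cell death triggered by IL-1 beta plus TNF-alpha plus IFN-gamma mixture; protective hits raise ATP signal compared with cytokine alone wells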
# [14] = Shn3 3'UTR reporter inhibitors, dose response, cell-based, Clone20 osteoblasts, firefly luciferase, cherry-picked (AID 624132); type: functional;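 note: firefly luciferase luminescence from reporter carrying the Shn3 3'UTR in osteoblasts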
# [15] = HepG2 cell cytotoxicity, dose response, cytotoxicity control for Shn3 inhibitor project, CellTiter-Glo, cherry-picked (AID 624134); type: functional, cell-based
# [16] = control 3'UTR Renilla luciferase suppression, dose response, counter-screen for Shn3 inhibitor project, cell-based, Clone20-Shn3RL, cherry-picked (AID 624133); type: functional
# [17] = target: T4, Replicative DNA helicase DnaB (Mycobacterium tuberculosis, UniProt P9WMR3); assay: DnaB intein splicing inhibitors, dose response, biochemical, cell-free fluorescence (AID 449749); type: functional
# T4 sequence (P9WMR3 whole entry): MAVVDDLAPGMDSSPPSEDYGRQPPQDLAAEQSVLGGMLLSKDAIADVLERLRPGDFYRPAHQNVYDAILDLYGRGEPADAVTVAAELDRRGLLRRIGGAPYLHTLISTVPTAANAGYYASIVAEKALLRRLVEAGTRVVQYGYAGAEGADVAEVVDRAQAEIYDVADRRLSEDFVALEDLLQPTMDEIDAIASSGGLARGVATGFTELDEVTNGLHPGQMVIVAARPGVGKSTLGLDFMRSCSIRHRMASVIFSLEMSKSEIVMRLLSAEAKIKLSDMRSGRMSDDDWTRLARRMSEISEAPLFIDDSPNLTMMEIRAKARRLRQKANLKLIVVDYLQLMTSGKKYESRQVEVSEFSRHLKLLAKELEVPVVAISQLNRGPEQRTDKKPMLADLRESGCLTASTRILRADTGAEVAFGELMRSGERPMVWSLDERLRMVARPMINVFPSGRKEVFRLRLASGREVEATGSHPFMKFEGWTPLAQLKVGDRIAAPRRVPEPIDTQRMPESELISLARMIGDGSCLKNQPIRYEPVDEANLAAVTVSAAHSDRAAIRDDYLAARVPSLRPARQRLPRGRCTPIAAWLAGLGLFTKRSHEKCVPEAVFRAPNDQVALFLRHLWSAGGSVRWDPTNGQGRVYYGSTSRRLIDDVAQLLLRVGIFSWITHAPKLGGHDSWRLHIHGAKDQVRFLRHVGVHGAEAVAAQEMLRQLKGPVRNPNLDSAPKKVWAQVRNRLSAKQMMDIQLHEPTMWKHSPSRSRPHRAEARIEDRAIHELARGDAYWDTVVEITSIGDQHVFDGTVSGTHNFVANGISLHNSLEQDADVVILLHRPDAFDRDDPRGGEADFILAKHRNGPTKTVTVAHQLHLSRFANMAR
# [18] = target: T5, Protein RecA (Mycobacterium tuberculosis, UniProt P9WHJ3); assay: Fluorescence Cell-Free Homogeneous Dose Retest to Identify Inhibitors of RecA-Intein Splicing Activity. [Related pubchem assays (depositor defined):AID2097, AID2223, AID489010, AID492950]; type: functional
# T5 sequence (P9WHJ3 whole entry): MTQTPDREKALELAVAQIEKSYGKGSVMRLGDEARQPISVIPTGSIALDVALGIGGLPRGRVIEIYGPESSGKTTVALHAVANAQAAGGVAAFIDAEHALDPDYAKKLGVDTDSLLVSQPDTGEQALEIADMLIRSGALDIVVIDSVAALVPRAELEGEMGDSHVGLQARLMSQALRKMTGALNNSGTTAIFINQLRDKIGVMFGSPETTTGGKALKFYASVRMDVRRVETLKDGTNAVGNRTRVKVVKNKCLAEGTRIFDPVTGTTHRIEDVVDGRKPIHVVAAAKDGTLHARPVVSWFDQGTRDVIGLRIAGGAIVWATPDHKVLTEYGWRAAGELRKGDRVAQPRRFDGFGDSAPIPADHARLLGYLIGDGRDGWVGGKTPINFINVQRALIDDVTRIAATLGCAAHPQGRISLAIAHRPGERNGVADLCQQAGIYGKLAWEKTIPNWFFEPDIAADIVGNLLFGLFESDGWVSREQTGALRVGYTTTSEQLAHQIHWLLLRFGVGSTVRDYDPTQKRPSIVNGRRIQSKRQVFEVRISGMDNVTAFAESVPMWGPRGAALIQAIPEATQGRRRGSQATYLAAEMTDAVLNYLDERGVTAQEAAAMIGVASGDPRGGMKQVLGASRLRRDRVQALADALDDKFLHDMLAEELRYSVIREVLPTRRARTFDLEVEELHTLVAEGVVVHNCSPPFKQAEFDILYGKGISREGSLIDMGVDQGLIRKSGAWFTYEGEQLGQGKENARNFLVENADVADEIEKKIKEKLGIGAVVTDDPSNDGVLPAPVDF
# [19] = Fluorescence-based cell-based high throughput dose response assay for inhibitors of the interaction of nucleotide-binding oligomerization domain containing 2 (NOD2) and the receptor-interacting serine-threonine kinase 2 (RIPK2).; type: functional; settings: Homo sapiens
# Protein Wnt-3a, sequence (P27467 whole entry, the tested form may be a part): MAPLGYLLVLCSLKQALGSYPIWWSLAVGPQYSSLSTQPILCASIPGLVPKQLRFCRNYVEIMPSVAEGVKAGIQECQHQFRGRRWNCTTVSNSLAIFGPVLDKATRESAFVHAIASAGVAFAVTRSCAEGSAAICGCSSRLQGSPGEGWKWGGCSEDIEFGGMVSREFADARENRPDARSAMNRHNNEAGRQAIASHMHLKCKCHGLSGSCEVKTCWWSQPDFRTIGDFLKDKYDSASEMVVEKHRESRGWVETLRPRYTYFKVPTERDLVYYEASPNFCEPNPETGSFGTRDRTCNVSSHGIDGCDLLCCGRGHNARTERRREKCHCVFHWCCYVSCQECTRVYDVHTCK
# Hepatocyte nuclear factor 4-alpha, sequence (P41235 whole entry, the tested form may be a part): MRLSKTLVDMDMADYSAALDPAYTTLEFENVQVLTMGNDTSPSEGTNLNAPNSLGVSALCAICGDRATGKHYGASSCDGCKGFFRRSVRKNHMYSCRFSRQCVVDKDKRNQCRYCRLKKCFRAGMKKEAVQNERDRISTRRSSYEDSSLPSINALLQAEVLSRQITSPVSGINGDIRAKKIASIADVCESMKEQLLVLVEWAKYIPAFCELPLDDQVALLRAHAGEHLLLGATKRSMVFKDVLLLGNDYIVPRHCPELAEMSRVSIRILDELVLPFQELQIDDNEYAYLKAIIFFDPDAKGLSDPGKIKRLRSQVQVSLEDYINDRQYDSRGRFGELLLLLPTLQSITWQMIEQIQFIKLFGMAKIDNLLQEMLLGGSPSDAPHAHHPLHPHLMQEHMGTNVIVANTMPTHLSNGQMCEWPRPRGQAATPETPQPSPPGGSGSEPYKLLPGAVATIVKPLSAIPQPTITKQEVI
# Cytochrome P450 2D6, sequence (P10635 whole entry): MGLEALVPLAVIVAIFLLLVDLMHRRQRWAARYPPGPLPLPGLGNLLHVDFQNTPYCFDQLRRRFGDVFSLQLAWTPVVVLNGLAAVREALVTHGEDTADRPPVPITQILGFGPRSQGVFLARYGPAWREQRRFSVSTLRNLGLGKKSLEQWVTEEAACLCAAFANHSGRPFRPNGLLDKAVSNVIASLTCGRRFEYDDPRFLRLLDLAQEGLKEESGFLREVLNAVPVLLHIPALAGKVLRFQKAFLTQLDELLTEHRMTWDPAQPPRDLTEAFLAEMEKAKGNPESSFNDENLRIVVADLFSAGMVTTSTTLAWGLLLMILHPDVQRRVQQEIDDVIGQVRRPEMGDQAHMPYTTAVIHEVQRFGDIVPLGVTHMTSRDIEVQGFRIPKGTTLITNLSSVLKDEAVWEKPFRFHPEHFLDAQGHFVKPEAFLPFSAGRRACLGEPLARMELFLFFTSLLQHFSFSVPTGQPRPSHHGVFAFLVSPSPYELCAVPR
# Photoreceptor-specific nuclear receptor, sequence (Q9Y5X4 whole entry, the tested form may be a part): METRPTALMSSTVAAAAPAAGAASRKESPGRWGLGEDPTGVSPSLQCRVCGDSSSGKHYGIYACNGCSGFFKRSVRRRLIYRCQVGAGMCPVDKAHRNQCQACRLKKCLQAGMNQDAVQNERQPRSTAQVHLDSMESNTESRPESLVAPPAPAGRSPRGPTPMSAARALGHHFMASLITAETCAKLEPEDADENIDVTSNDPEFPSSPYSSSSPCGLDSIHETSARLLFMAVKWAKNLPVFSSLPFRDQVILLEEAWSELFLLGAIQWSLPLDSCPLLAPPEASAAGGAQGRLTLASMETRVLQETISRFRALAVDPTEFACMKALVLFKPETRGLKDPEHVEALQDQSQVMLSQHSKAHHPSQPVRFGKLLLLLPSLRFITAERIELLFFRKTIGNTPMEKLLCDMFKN
smiles,measurement,setting,value
Cc1ccc(OCCOC(=O)c2cc(S(=O)(=O)N3CCCCC3)ccc2N2CCOCC2)cc1,EC50,[1],11.8 µM (active)
same,IC50,[2],12.6 µM (inactive)
same,IC50,[3],4.83 µM (active)
O=C(NC1CCCCC1)C(c1cc2ccccc2o1)n1c(=O)c(-c2ccco2)nc2ccccc21 (stereo not drawn),IC50,[4],2.19 µM (active)
COc1cccc(CSc2nnc(C(F)(F)F)n2Cc2ccc(F)cc2)c1,EC50,[5],> 260 µM (inactive)
same,IC50,[6],7.2 µM (active)
same,EC50,[7],> 53 µM (inactive)
same,IC50,[8],> 20 µM (inactive)
same,AC50,[9],10 µM (inconclusive)
CCOC(=O)c1c(-c2ccccc2)oc2ccc(OC(C)C(=O)O)cc12 (stereo not drawn),IC50,[6],< 0.368 µM (active)
same,EC50,[7],> 53 µM (inactive)
same,IC50,[8],0.34 µM (active)
COc1ccccc1/C=C/C(=O)c1ccccc1,EC50,[10],> 350 µM (not active)
same,EC50,[11],6.12 µM (active)
same,IC50,[4],7.12 µM (active)
Cc1sc2ncnc(NCC(C)(C)N3CCOCC3)c2c1C,EC50,[12],0.841 µM (active)
same,AC50,[13],2.96 µM (active)
same,AC50,[14],1.36 µM (active)
same,AC50,[15],4.09 µM (active)
same,AC50,[16],3 µM (active)
same,IC50,[3],0.942 µM (active)
O=C(NCc1cccnc1)/C(=C\c1ccc(-c2ccc(Br)cc2)o1)S(=O)(=O)c1ccccc1,AC50,[17],> 380 µM (inconclusive)
same,EC50,[18],20.2 µM (active)
same,AC50,[13],2.9 µM (active)
same,AC50,[14],6.33 µM (active)
same,AC50,[15],11.3 µM (active)
same,AC50,[16],13 µM (active)
same,IC50,[19],5.51 µM (active)
